The values below come from patent US10246429B2, “Vinyl fluoride cyclopropyl fused thiazin-2-amine compounds as beta-secretase inhibitors and methods of use” (AMGEN INC., priority 2015, dated 2019).

One assay deals with Cathepsin D (CatD) (Homo sapiens (Human), UniProt P07339). In words: CatD assay. In kind it is biochemical. The settings on record: read-out: IC50 IP (μM) CatD.
Assay [1] concerns the target T1, BACE1 (Homo sapiens (Human), UniProt P56817). Put plainly: In vitro enzymatic BACE1 FRET assay. To be noted: read-out: IC50 IP (μM) BACE1 Enzyme. In kind it is biochemical.
Target sequence in this assay (P56817 46-501): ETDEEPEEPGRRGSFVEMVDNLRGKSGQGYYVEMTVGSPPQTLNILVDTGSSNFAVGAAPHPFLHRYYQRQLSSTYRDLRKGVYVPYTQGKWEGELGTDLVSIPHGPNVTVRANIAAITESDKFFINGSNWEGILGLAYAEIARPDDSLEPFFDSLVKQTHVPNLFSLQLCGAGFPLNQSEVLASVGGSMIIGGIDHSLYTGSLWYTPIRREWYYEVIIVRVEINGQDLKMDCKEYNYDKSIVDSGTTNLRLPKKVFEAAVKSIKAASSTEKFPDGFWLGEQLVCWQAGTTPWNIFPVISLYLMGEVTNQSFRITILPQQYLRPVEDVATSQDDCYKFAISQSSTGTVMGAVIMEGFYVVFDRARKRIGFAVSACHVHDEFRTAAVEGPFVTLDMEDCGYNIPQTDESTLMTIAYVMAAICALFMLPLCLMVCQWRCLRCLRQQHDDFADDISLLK
Text: (§1) In Vitro Enzymatic BACE1 and BACE2 FRET (Fluorescence Resonance Energy Transfer) Assays (Enzyme Assay Data in Table 1)
For a further assay, the target named is BACE2 (Homo sapiens (Human), UniProt Q9Y5Z0). In words: In vitro enzymatic BACE2 FRET assay. The settings on record: read-out: IC50 IP (μM) BACE2 Enzyme. It counts as biochemical.
Assay [2] addresses T1, BACE1. In words: BACE1 cell assay. It counts as cell-based.
Target sequence in this assay (P56817 46-501, species assumed): as the sequence (P56817 46-501) above
Where [3] appears, read: read-out: IC50 IP (μM) BACE1 Cell.

Structures are written as SMILES.

Sequence of BACE2 (Q9Y5Z0 63-518): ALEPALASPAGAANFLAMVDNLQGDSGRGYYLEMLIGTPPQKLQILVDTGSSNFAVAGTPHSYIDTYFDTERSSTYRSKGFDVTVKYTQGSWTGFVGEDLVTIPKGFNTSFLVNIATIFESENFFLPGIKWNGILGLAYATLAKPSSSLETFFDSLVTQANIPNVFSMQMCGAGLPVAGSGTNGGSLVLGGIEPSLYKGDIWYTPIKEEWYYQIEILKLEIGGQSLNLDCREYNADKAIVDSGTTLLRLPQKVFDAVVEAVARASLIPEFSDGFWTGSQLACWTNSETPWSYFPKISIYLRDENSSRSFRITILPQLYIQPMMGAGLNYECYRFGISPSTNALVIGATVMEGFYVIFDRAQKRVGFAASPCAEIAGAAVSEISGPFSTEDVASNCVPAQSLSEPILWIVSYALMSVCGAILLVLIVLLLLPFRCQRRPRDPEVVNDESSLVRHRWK
Sequence of Cathepsin D (CatD) (P07339 65-412, species assumed): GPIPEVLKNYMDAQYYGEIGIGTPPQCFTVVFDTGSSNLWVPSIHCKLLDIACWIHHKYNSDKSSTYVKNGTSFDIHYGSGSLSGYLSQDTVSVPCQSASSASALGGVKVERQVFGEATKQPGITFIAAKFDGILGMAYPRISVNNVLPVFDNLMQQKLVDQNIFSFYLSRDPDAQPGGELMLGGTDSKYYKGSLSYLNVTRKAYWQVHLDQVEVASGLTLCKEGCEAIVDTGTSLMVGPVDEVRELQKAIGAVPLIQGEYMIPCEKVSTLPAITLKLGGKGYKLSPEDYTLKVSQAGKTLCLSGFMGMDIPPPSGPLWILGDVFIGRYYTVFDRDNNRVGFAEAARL
Text for BACE2: as §1

Regarding `Cc1nnc(COc2cnc(/C(F)=C/c3ccc(F)c([C@@]4(C)N=C(N)S[C@@]5(C(=O)N(C)C)C[C@H]54)c3)cn2)o1` [Example 216, (1S,5S,6S)-3-amino-5-(2-fluoro-5-((Z)-2-fluoro-2-(5-((5-methyl-1,3,4-oxadiazol-2-yl)methoxy)pyrazin-2-yl)vinyl)phenyl)-N,N,5-trimethyl-2-thia-4-azabicyclo[4.1.0]hept-3-ene-1-carboxamide], the IC50 (as a rule, the point on the concentration scale where inhibition reaches its midpoint) on Cathepsin D (CatD) was 391 µM; on BACE1 [1], 0.007 µM; at BACE2, 0.072 µM; at BACE1 [2] (setting [3]), 0.005 µM.

For the compound `Cc1noc(COc2cnc(/C(F)=C/c3ccc(F)c([C@@]4(C)N=C(N)S[C@@]5(C(=O)N(C)C)C[C@H]54)c3)cn2)n1` [Example 217, (1S,5S,6S)-3-amino-5-(2-fluoro-5-((Z)-2-fluoro-2-(5-((3-methyl-1,2,4-oxadiazol-5-yl)methoxy)pyrazin-2-yl)vinyl)phenyl)-N,N,5-trimethyl-2-thia-4-azabicyclo[4.1.0]hept-3-ene-1-carboxamide], the IC50 on Cathepsin D (CatD) stood at 438 µM; at BACE1 [1], 0.002 µM; at BACE2, 0.07 µM; on BACE1 [2] (setting [3]) it was 0.002 µM.

On to `Cc1cc(COc2cnc(/C(F)=C/c3ccc(F)c([C@@]4(C)N=C(N)S[C@@]5(C(=O)N(C)C)C[C@H]54)c3)cn2)on1` [Example 218, (1S,5S,6S)-3-amino-5-(2-fluoro-5-((Z)-2-fluoro-2-(5-((3-methylisoxazol-5-yl)methoxy)pyrazin-2-yl)vinyl)phenyl)-N,N,5-trimethyl-2-thia-4-azabicyclo[4.1.0]hept-3-ene-1-carboxamide], for which the IC50 at Cathepsin D (CatD) came out at 156 µM; at BACE1 [1] it was 0.01 µM; on BACE2, 0.033 µM; against BACE1 [2], 0.04 µM.

For the compound `CN(C)C(=O)[C@]12C[C@H]1[C@@](C)(c1cc(/C=C(\F)c3ncc(C#N)s3)ccc1F)N=C(N)S2` [Example 219, (1S,5S,6S)-3-amino-5-(5-((Z)-2-(5-cyanothiazol-2-yl)-2-fluorovinyl)-2-fluorophenyl)-N,N,5-trimethyl-2-thia-4-azabicyclo[4.1.0]hept-3-ene-1-carboxamide], the IC50 at Cathepsin D (CatD) is 110 µM; at BACE1 [1] it was 0.004 µM; on BACE2, 0.007 µM; at BACE1 [2] (setting [3]), 0.005 µM.

`CN(C)C(=O)[C@]12C[C@H]1[C@@](C)(c1cc(/C=C(\F)c3ccc(C#N)s3)ccc1F)N=C(N)S2` [Example 220, (1S,5S,6S)-3-amino-5-(5-((Z)-2-(5-cyanothiophen-2-yl)-2-fluorovinyl)-2-fluorophenyl)-N,N,5-trimethyl-2-thia-4-azabicyclo[4.1.0]hept-3-ene-1-carboxamide]: the IC50 worked out at 26.4 µM on Cathepsin D (CatD), 0.011 µM at BACE1 [1], 0.002 µM on BACE2 and 0.022 µM on BACE1 [2] (setting [3]).

For the compound `CN(C)C(=O)[C@]12C[C@H]1[C@@](C)(c1cc(/C(F)=C/c3ccc(C#N)cc3)ccc1F)N=C(N)S2` [Example 221, (1S,5S,6S)-3-amino-5-(5-((Z)-2-(4-cyanophenyl)-1-fluorovinyl)-2-fluorophenyl)-N,N,5-trimethyl-2-thia-4-azabicyclo[4.1.0]hept-3-ene-1-carboxamide], the IC50 on Cathepsin D (CatD) worked out at 48.6 µM; at BACE1 [1], 0.128 µM; on BACE2, 0.302 µM; on BACE1 [2], 0.575 µM.

Take `CNC(=O)[C@]12C[C@H]1[C@@](C)(c1cc(/C=C(\F)c3ccc(C(F)(F)F)cn3)ccc1F)N=C(N)S2` [Example 224, (1S,5S,6S)-3-amino-5-(2-fluoro-5-((Z)-2-fluoro-2-(5-(trifluoromethyl)pyridin-2-yl)vinyl)phenyl)-N,5-dimethyl-2-thia-4-azabicyclo[4.1.0]hept-3-ene-1-carboxamide]: the IC50 on Cathepsin D (CatD) came to 396 µM; on BACE1 [1], 0.015 µM; at BACE2, 0.564 µM; on BACE1 [2], 0.031 µM.

Turning to `CNC(=O)[C@]12C[C@H]1[C@@](C)(c1cc(/C=C(\F)c3ncc(C#N)cc3C)ccc1F)N=C(N)S2` [Example 225, (1S,5S,6S)-3-amino-5-(5-((Z)-2-(5-cyano-3-methylpyridin-2-yl)-2-fluorovinyl)-2-fluorophenyl)-N,5-dimethyl-2-thia-4-azabicyclo[4.1.0]hept-3-ene-1-carboxamide], the IC50 at Cathepsin D (CatD) was found to be 198 µM; on BACE1 [1] it was 0.027 µM; on BACE2 it was 0.621 µM; against BACE1 [2], 0.033 µM.

On to `CNC(=O)[C@]12C[C@H]1[C@@](C)(c1cc(/C=C(\F)c3cnc(OCc4cnco4)cn3)ccc1F)N=C(N)S2` [Example 226, (1S,5S,6S)-3-amino-5-(2-fluoro-5-((Z)-2-fluoro-2-(5-(oxazol-5-ylmethoxy)pyrazin-2-yl)vinyl)phenyl)-N,5-dimethyl-2-thia-4-azabicyclo[4.1.0]hept-3-ene-1-carboxamide], for which the IC50 on Cathepsin D (CatD) was found to be 18.5 µM; at BACE1 [1], 0.126 µM; on BACE2, 0.285 µM; against BACE1 [2], 0.608 µM.

As to `C#CCOc1cnc(/C(F)=C/c2ccc(F)c([C@@]3(C)N=C(N)S[C@@]4(S(C)(=O)=O)C[C@H]43)c2)cn1` [Example 227, (1R,5S,6S)-5-(2-fluoro-5-((Z)-2-fluoro-2-(5-(prop-2-yn-1-yloxy)pyrazin-2-yl)vinyl)phenyl)-5-methyl-1-(methylsulfonyl)-2-thia-4-azabicyclo[4.1.0]hept-3-en-3-amine], the IC50 at Cathepsin D (CatD) is 55.1 µM; at BACE1 [1], 0.0006 µM; on BACE2, 0.058 µM; against BACE1 [2], 0.0105 µM.

On to `C[C@]1(c2cc(/C=C(\F)c3cnc(Cl)cn3)ccc2F)N=C(N)S[C@@]2(S(C)(=O)=O)C[C@H]21` [Example 230, (1R,5S,6S)-5-(5-((Z)-2-(5-chloropyrazin-2-yl)-2-fluorovinyl)-2-fluorophenyl)-5-methyl-1-(methylsulfonyl)-2-thia-4-azabicyclo[4.1.0]hept-3-en-3-amine], for which the IC50 at Cathepsin D (CatD) is 121 µM; on BACE1 [1] it was 0.0057 µM; on BACE2, 0.011 µM; on BACE1 [2] (setting [3]), 0.231 µM.

Turning to `C#C[C@H](C)Oc1cnc(/C(F)=C/c2ccc(F)c([C@@]3(C)N=C(N)S[C@@]4(S(C)(=O)=O)C[C@H]43)c2)cn1` [Example 232, (1R,5S,6S)-5-(5-((Z)-2-(5-((S)-but-3-yn-2-yloxy)pyrazin-2-yl)-2-fluorovinyl)-2-fluorophenyl)-5-methyl-1-(methylsulfonyl)-2-thia-4-azabicyclo[4.1.0]hept-3-en-3-amine], the IC50 is 88.5 µM at Cathepsin D (CatD), 0.001 µM on BACE1 [1], 0.108 µM on BACE2 and 0.0395 µM on BACE1 [2] (setting [3]).

Consider `C[C@]1(c2cc(/C=C(\F)c3ccc(C#N)cn3)ccc2F)N=C(N)S[C@@]2(S(C)(=O)=O)C[C@H]21` [Example 233, 6-((Z)-2-(3-((1R,5S,6S)-3-amino-5-methyl-1-(methylsulfonyl)-2-thia-4-azabicyclo[4.1.0]hept-3-en-5-yl)-4-fluorophenyl)-1-fluorovinyl)nicotinonitrile], for which the IC50 on Cathepsin D (CatD) amounted to 204 µM; at BACE1 [1] it was 0.0016 µM; on BACE2 it was 0.014 µM; at BACE1 [2] (setting [3]), 0.0087 µM.

As to `C#CCOc1cnc(/C(F)=C/c2ccc(F)c([C@@]3(C)N=C(N)S[C@@]4(C(C)=O)C[C@H]43)c2)cn1` [Example 234, 1-((1S,5S,6S)-3-amino-5-(2-fluoro-5-((Z)-2-fluoro-2-(5-(prop-2-yn-1-yloxy)pyrazin-2-yl)vinyl)phenyl)-5-methyl-2-thia-4-azabicyclo[4.1.0]hept-3-en-1-yl)ethanone], the IC50 at Cathepsin D (CatD) is 125 µM; on BACE1 [1], 0.0059 µM; on BACE2, 0.581 µM; at BACE1 [2], 0.0111 µM.

Consider `CC#CCOc1cnc(/C(F)=C/c2ccc(F)c([C@@]3(C)N=C(N)S[C@@]4(C(C)=O)C[C@H]43)c2)cn1` [Example 235, 1-((1S,5S,6S)-3-amino-5-(5-((Z)-2-(5-(but-2-yn-1-yloxy)pyrazin-2-yl)-2-fluorovinyl)-2-fluorophenyl)-5-methyl-2-thia-4-azabicyclo[4.1.0]hept-3-en-1-yl)ethanone], for which the IC50 on Cathepsin D (CatD) is 587 µM; at BACE1 [1], 0.0022 µM; on BACE2, 0.247 µM; at BACE1 [2] (setting [3]), 0.0058 µM.

With `CC(=O)[C@]12C[C@H]1[C@@](C)(c1cc(/C=C(\F)c3cnc(OCC(F)(F)F)cn3)ccc1F)N=C(N)S2` [Example 236, 1-((1S,5S,6S)-3-amino-5-(2-fluoro-5-((Z)-2-fluoro-2-(5-(2,2,2-trifluoroethoxy)pyrazin-2-yl)vinyl)phenyl)-5-methyl-2-thia-4-azabicyclo[4.1.0]hept-3-en-1-yl)ethanone], the half-maximal inhibitory concentration (IC50) came out at 400 µM at Cathepsin D (CatD), 0.118 µM on BACE1 [1], 1.28 µM at BACE2 and 0.284 µM on BACE1 [2] (setting [3]).

As to `CC(=O)[C@]12C[C@H]1[C@@](C)(c1cc(/C=C(\F)c3ccc(C#N)cn3)ccc1F)N=C(N)S2` [Example 238, 6-((Z)-2-(3-((1S,5S,6S)-1-acetyl-3-amino-5-methyl-2-thia-4-azabicyclo[4.1.0]hept-3-en-5-yl)-4-fluorophenyl)-1-fluorovinyl)nicotinonitrile], the 50% inhibitory concentration (IC50) is 892 µM at Cathepsin D (CatD), 0.0121 µM at BACE1 [1], 0.245 µM at BACE2 and 0.0066 µM against BACE1 [2].

For `C#CCOc1cnc(/C(F)=C/c2ccc(F)c([C@@]3(C)N=C(N)S[C@@]4(C#N)C[C@H]43)c2)cn1` [Example 240, (1S,5S,6S)-3-amino-5-(2-fluoro-5-((Z)-2-fluoro-2-(5-(prop-2-yn-1-yloxy)pyrazin-2-yl)vinyl)phenyl)-5-methyl-2-thia-4-azabicyclo[4.1.0]hept-3-ene-1-carbonitrile], the concentration for half-maximal inhibition (IC50) is 124 µM at Cathepsin D (CatD), 0.0012 µM on BACE1 [1], 0.081 µM on BACE2 and 0.0175 µM on BACE1 [2] (setting [3]).
